Laboratory results as given in PMC12670317, “Targeted NAT10 Degradation by PROTAC NP1192 Suppresses Hypoxia-Adaptive Glycolysis and Reinvigorates CD8^+ Effector T‑Cell Function for Synergistic Cancer Immunotherapy” (ACS Central Science, 2025).

Key:
[1] = system: CD8+ TILs, M2 macrophages, MDSCs and Treg cells in U14 xenograft tumors; conditions: Figure 7A
Description: After the mice were euthanized, the tumor and peritumoral tissues were analyzed with an immunoflow kit (BioLegend, USA). The antibodies used for immunoflow cytometry included antihuman/mouse antibodies specific for CD11b-BV711, F4/80-AF647, CD206-PE, CD86-BV605, CD4-CD4-FITC IL-17-17-CY7/CY7, CD25-PE, FOXP3-AF647, CD4-BV605, CD45-PE/CY7, CD11b-BV711 and LY-6G/LY-6C-BV421 (BioLegend catalog no. 321239, RRID:AB_2860843). All data analyses were performed via GraphPad Prism 9, and the data are presented as the mean ± SEMs.

[2] = system: U14 cells subcutaneous xenograft; experiment: U14 subcutaneous xenograft model in C57BL/6J mice; assay type: in vivo
Description: U14 cells (1 × 10^7 cells per mouse, approximately 100–150 μL of cell suspension) were implanted subcutaneously into the lateral lower dorsal surface of each mouse. The tumors were allowed to grow for 7 days, and the mice were then administered one of five treatments (group 1: U14 cells + DMSO; group 2: U14 cells + Remodelin; group 3: U14 cells + anti-PD-L1 antibody; group 4: U14 cells + NP1192; group 5: U14 cells + anti-PD-L1 antibody + NP1192). Each group of mice was assigned according to the principles of randomization and the blinding method. Tumors were measured every 2 days, and tumor volume was calculated via the following equation: volume = (width)^2 × length/2. Remodelin and NP1192 were injected into the peritumoral area every 2 days at a dose of 25 mg/kg, and the in vivo antimouse PD-L1 antibody (low endotoxin) was injected every 3 days at a dose of 2.5 mg/kg.
A lentiviral vector expressing firefly luciferase was transduced into the U14 cells. After puromycin selection and cell expansion, U14 cells with stable firefly luciferase expression were generated. C57BL/6J mice were randomly divided into the following 5 groups for further experiments: group 1, U14 cells + DMSO; group 2, U14 cells + Remodelin; group 3, U14 cells + anti-PD-L1 antibody; group 4, U14 cells + NP1192; and group 5, U14 cells + anti-PD-L1 antibody + NP1192. After tumor stabilization, the luciferase substrate was injected into the mice every 2 days, and fluorescence values were obtained via a Maestro in vivo imaging system.

[3] = system: cervical squamous cell carcinoma and endocervical adenocarcinoma (CESC) patient-derived organoids; experiment: ATP-based viability assay in patient-derived organoids, CESC; assay type: cell-based; conditions: Homo sapiens, CESC PDOs, read-out: IC50, organoid viability
Description: Organoid culture was performed according to previously established protocols. Briefly, we procured patient-derived tissue samples provided and technically manipulated by Accurate International Biotechnology Co., Ltd. Subsequently, these samples were subjected to mechanical and enzymatic dissociation to disaggregate the tissue into single cells or small clusters, while preserving cellular integrity. Following this initial step, the isolated cells or tissue fragments were embedded within a 3D ECM scaffold, such as Matrigel or collagen. The ECM scaffold served as a supportive substrate, promoting cellular self-organization and mimicking native tissue architecture. Additionally, a precisely formulated cocktail of growth factors, cytokines, and signaling molecules tailored to the specific tissue of interest was meticulously formulated and added to the culture medium to facilitate organoid growth and maintenance.

SiHa cells [4] = experiment: SiHa cell viability IC50 (CCK-8); assay type: cell-based, human
Description: NAT10^± SiHa cells and SiHa cells treated with DMSO, Remodelin or NP1192 for 36 h were seeded into the wells of a 96-well microplate at identical densities of 2000 or 3000 cells per well. After the cells adhered to the well surface, 110 μL of a 1:10 mixture of CCK-8 reagent (Meilunbio, China) and RPMI 1640 medium was added to each well. The microplate was then incubated for another 2 h in the incubator, and the mixture was replaced with an equal volume of medium. A microplate reader (BioTek, US) was used to measure the absorption at a wavelength of 450 nm.

SiHa cells [5] = experiment: Colony formation assay in SiHa cells; assay type: cell-based, human; conditions: pretreated 20 μM 36 h, 2 weeks
Description: NAT10^± SiHa cells and SiHa cells treated with DMSO, Remodelin or NP1192 for 36 h were seeded into the wells of a 6-well microplate at identical densities of 2000 or 3000 cells per well. The cells were then incubated in the incubator for at least 2 weeks to form colonies. After the incubation period, the cells were fixed with formalin and then stained with crystal violet. The colonies were then counted via a microscope. The number and size of the colonies in the experimental groups were compared.

For `N#Cc1ccc(-c2csc(N(CCCCCCC(=O)N3CCN(c4cccc5c4C(=O)N(C4CCC(=O)NC4=O)C5=O)CC3)N=C3CCCC3)n2)cc1` (centres unmarked) [NP1192], the Treg gate ([1]; CD4+CD25+FOXP3+) was 0.00%, the “M2 (M2 macrophages gate)” value ([1]; CD11b+F4/80+CD206+) was 8.10% and the MDSC gate ([1]; CD11b+LY-6G+) was 4.96%. For the same compound, the “CD8+ (CD8+ TILs gate)” value ([1]; tumors after treatment) was 4.30%, the tumor volume ([2]; 25 mg/kg every 2 days, compared to DMSO or Remodelin) was “significantly reduced tumor volume” and the “weight loss or systemic toxicity” value ([2]; U14 xenograft mice, 25 mg/kg) was “did not cause significant weight loss or systemic toxicity”. The “reduction in tumor lactate levels” value ([2]; xenograft tumors after treatment for 1 week) was “more than 40%”, the IC50 [3] was 3.05 µM and the IC50 (SiHa cells [4]; Homo sapiens, parental SiHa cells, 36 h, read-out: IC50, inhibition of SiHa cell viability) was 7.81 µM. The “IC50 lower than that of Remodelin” value (SiHa cells [4]; SiHa cells) was 26.8% and the colony formation capacity (SiHa cells [5]) was “substantial decrease in colony formation capacity”.
